By inhibition in vivo is commonly meant the drop in the measured response relative to a control, in per cent.

The assay has as its system PCA response. Kind of assay: rat Passive Cutaneous Anaphylaxis Test (PCA test). The format is in vivo, rat (male Wistar). As to conditions: sc, subcutaneous, as sodium salt. The method, then: All of the compounds of the formula (I) prepared in the preceding examples were tested in the rat Passive Cutaneous Anaphylaxis Test (PCA test) described below. They were administered as their sodium salts either in pH 7.2 phosphate buffer (for soluble salts) or as a suspension in 1% methyl cellulose (for insoluble salts).
Male Wistar rats of 250-300 g were injected intraperitoneally with 0.5 ml. of Bordatella pertussis vaccine (containing 4 × 10^10 dead organism per ml) and subcutaneously with 0.5 ml. of an emulsion of 100 mg of ovalbumin in 2 ml. of saline and 3 ml. of incomplete Freunds' adjuvant. Rats were bled by cardiac puncture on day 18, the blood was pooled and separated and serum stored at -20° and thawed only once before use.
0.1 ml. of each of six twofold serial dilutions of the serum in 0.9% saline were injected intradermally into separate sites on the shaved dorsal surface of 250-350 g. Male Wister rats. 72 hours later the animals were challenged by i.v. injection of 0.3 ml. of 1% ovalbumin mixed with 0.1 ml. of a 5% solution of pontamine sky blue dye both in isotonic saline buffered with pH 7.2 Sorenson buffer (P.B.S.). The rats were killed after 20 minutes and the diameter of the blue wheals at the antibody injection sites were measured. The starting dilution of the serum was adjusted so that there was no response, after challenge, at the site of injection of the highest dilution and a maximum response at the two or three lowest dilutions.
Amounts of the compounds were administered to rats by subcutaneous injection, into the nucal region, of a solution of the compound in P.B.S. or as a suspension in 1% methyl cellulose, each amount to a test group of six animals at a specified time prior to intravenous challenge with ovalbumin.
For those compounds having insoluble sodium salts, the salts were isolated by reaction of the free nitro compound with 2.5N sodium hydroxide and the filtered sodium salt washed free of alkali with water. The dried salts were then administered as a suspension in 1% methyl cellulose.

[1] abbreviates: 0.5 h, time 30 mins before challenge.
Setting [2] is: 10 min, time 10 mins before challenge.

`O=C1C(O)=C([N+](=O)[O-])C(=O)c2ccccc21` [Example 1, 2-Hydroxy-3-nitro-1,4naphthoquinone]: under setting [1], the inhibition in vivo at 25 mg/kg was found to be 16% and the inhibition in vivo at 100 mg/kg is 30%.

For `Cc1ccc2c(c1)C(=O)C([N+](=O)[O-])=C(O)C2=O` [Example 2, 2-Hydroxy-6-methyl-3-nitro-1,4-naphthoquinone], under setting [1], the inhibition in vivo at 25 mg/kg worked out at 33% and the inhibition in vivo at 100 mg/kg turned out to be 30%.

With `O=C1C([N+](=O)[O-])=C(O)C(=O)c2c(O)cccc21` [Example 3, 3,5-Dihydroxy-2-nitro-1,4-naphthoquinone], the inhibition in vivo at 25 mg/kg under setting [1] was found to be 14%. The inhibition in vivo at 72 mg/kg (0.5 h, dose 72 mg/Kg, time 30 mins before challenge) stood at 18%.

As to `Cc1cccc2c1C(=O)C(O)=C([N+](=O)[O-])C2=O` [Example 4, 3-Hydroxy-5-methyl-2-nitro-1,4-naphthoquinone], the inhibition in vivo at 0.5 mg/kg (10 min, dose 0.5 mg/Kg, time 10 mins before challenge) came to 6%. Besides, under setting [2], the inhibition in vivo at 1 mg/kg is 16%, the inhibition in vivo at 2 mg/kg was determined as 16% and the inhibition in vivo at 4 mg/kg was determined as 29%.

`COc1ccc2c(c1)C(=O)C(O)=C([N+](=O)[O-])C2=O` [Example 5, 3-Hydroxy-6-methoxy-2-nitro-1,4-naphthoquinone]: under setting [2], the inhibition in vivo at 5 mg/kg came to 22%, the inhibition in vivo at 10 mg/kg was 41%, the inhibition in vivo at 20 mg/kg was found to be 65% and the inhibition in vivo at 40 mg/kg amounted to 85%.

`Cc1ccc2c(c1)C(=O)C(O)=C([N+](=O)[O-])C2=O` [Example 6, 3-Hydroxy-6-methyl-2-nitro-1,4-naphthoquinone]: under setting [2], the inhibition in vivo at 5 mg/kg was determined as 19%, the inhibition in vivo at 10 mg/kg turned out to be 36%, the inhibition in vivo at 20 mg/kg was 33% and the inhibition in vivo at 40 mg/kg was 52%.

`Cc1cc2c(cc1C)C(=O)C([N+](=O)[O-])=C(O)C2=O` [Example 7, 6,7-Dimethyl-2-hydroxy-3-nitro-1,4-naphthoquinone]: under setting [1], the inhibition in vivo at 25 mg/kg came to 18% and the inhibition in vivo at 100 mg/kg worked out at 27%.

As to `CCOc1ccc2c(c1)C(=O)C(O)=C([N+](=O)[O-])C2=O` [Example 8, 6-Ethoxy-3-hydroxy-2-nitro-1,4-naphthoquinone], under setting [2], the inhibition in vivo at 5 mg/kg turned out to be 25%, the inhibition in vivo at 10 mg/kg came out at 28%, the inhibition in vivo at 20 mg/kg is 54% and the inhibition in vivo at 40 mg/kg is 79%.

Turning to `COc1cc2c(cc1OC)C(=O)C([N+](=O)[O-])=C(O)C2=O` [Example 9, 6.7-Dimethoxy-2-hydroxy-3-nitro-1,4-naphthoquinone], under setting [2], the inhibition in vivo at 5 mg/kg was 28%, the inhibition in vivo at 10 mg/kg was 39%, the inhibition in vivo at 20 mg/kg came out at 75% and the inhibition in vivo at 40 mg/kg worked out at 84%.

On to `O=C1C(O)=C([N+](=O)[O-])C(=O)c2ccc(Br)cc21` [Example 10, 6-Bromo-3-hydroxy-2-nitro-1.4-naphthoquinone], for which the inhibition in vivo at 100 mg/kg is 5% under setting [2] and 13% under setting [1].

In the case of `O=C1C(O)=C([N+](=O)[O-])C(=O)c2ccc(F)cc21` [Example 11, 6-Fluoro-3-hydroxy-2-nitro-1,4-naphthoquinone], the inhibition in vivo at 100 mg/kg by setting is: under setting [2], 13%; under setting [1], 16%.

Consider `CCc1cc2c(cc1CC)C(=O)C([N+](=O)[O-])=C(O)C2=O` [Example 12, 6,7-Diethyl-2-hydroxy-3-nitro-1,4-naphthoquinone], for which, under setting [2], the inhibition in vivo at 1 mg/kg amounted to 11%, the inhibition in vivo at 2 mg/kg was 23% and the inhibition in vivo at 4 mg/kg came out at 26%. In addition, the inhibition in vivo at 8 mg/kg (10 min, dose 8 mg/Kg, time 10 mins before challenge) was determined as 55%.

Consider `O=C1C(O)=C([N+](=O)[O-])C(=O)c2cc3c(cc21)CCCC3` [Example 13, 2-Hydroxy-3-nitro-6,7-tetramethylene-1,4-naphtoquinone], for which, under setting [2], the inhibition in vivo at 5 mg/kg was 72%, the inhibition in vivo at 10 mg/kg was found to be 80%, the inhibition in vivo at 20 mg/kg was determined as 87% and the inhibition in vivo at 40 mg/kg came out at 90%.

For `O=C1C(O)=C([N+](=O)[O-])C(=O)c2ccc(-c3ccccc3)cc21` [Example 14, 2-Hydroxy-3-nitro-7-phenyl-1,4-naphthoquinone], under setting [2], the inhibition in vivo at 10 mg/kg was found to be 20%, the inhibition in vivo at 20 mg/kg is 12% and the inhibition in vivo at 40 mg/kg came to 23%. Besides, the inhibition in vivo at 80 mg/kg (10 min, dose 80 mg/Kg, time 10 mins before challenge) turned out to be 23%.

For the origin of these results see patent US4017639A, “2-Hydroxy-3-nitro-1,4-naphthoquinones for the prophylaxis of certain allergies” (Beecham Group Limited, priority 1974, dated 1977).
